Measurements: patent US9296722B2, “Azolyl urea compounds and methods of use thereof” (Ambit Biosciences Corporation, priority 2010, dated 2016)

Experiments:
[1] = target: kinase panel containing either 359 or 386 distinct kinases; experiment: Competition binding assay, selectivity score (S10) against a panel of kinases; details: compounds at 10 μM; fraction of kinases with percent of control less than 10
Procedure: Competition binding assays used herein were developed, validated and performed as described in Fabian et al., Nature Biotechnology 2005, 23, 329-336. Kinases were produced as fusions to T7 phage (See, Fabian et al. or WO04/015142) or alternatively, the kinases were expressed in HEK-293 cells and subsequently tagged with DNA for PCR detection (See, WO08/005,310). […] The liganded beads were blocked with excess biotin and washed with blocking buffer (SeaBlock (Pierce), 1% BSA, 0.05% Tween 20, 1 mM DTT) to remove unbound ligand and to reduce non-specific binding. […] Test compounds were prepared as 100× stocks in DMSO and diluted into the aqueous environment. Kds were determined using an eleven point threefold serial dilutions. DMSO or control compounds were was added to control assays lacking a test compound. Primary screen assays were performed in polypropylene 384-well plates in a final volume of 20-40 μL, while Kd determinations were performed in polystyrene 96-well plates in a final volume of […]. […] The kinase concentration in the eluates was measured by quantitative PCR.
A selectivity score (S10) is a quantitative measure of selectivity of a compound against a panel of kinases. An S10 was calculated for a compound by dividing the number of kinases found to have a percent of control (DMSO) less than 10 by the total number of distinct kinases tested (excluding mutant variants). Percent of control (POC) is calculated by subtracting the signal of the control compound
(POC=0) from the signal of the test compound and dividing the outcome by the signal of DMSO (POC=100) minus the signal of the control compound. For the compounds disclosed herein, S10 scores were obtained by testing the compounds at 10 μM concentration in a kinase panel containing either 359 or 386 distinct kinases.

M-NFS-60 cells = experiment: M-NFS-60 cell proliferation assay; format: cell-based, mouse; design: CSF1R Cell Proliferation (M-NFS-60) IC50 (nM): scale not given here; details: 72 hours incubation, Alamar Blue, M-CSF-dependent cells; for IC50: Mus musculus, read-out: CSF1R Cell Proliferation (M-NFS-60) IC50
Procedure: In certain embodiments, the compounds disclosed herein are tested in an M-NFS-60 cell proliferation assay to determine their cellular potency against CSF-1R. M-NFS-60s are mouse monocytic cells that depend on the binding of the ligand M-CSF to its receptor, CSF-1R, to proliferate Inhibition of CSF-1R kinase activity will cause reduced growth and/or cell death. This assay assesses the potency of compounds as CSF-1R inhibitors by measuring the reduction of Alamar Blue reagent by viable cells. An exemplary assay is described in the Examples section.
The compounds disclosed herein were tested in an M-NFS-60 cell proliferation assay to determine their cellular potency against CSF1R. M-NFS-60s are mouse monocytic cells that depend on the binding of the ligand M-CSF to its receptor, CSF1R, to proliferate Inhibition of CSF1R kinase activity will cause reduced growth and/or cell death. This assay assesses the potency of compounds as CSF1R inhibitors by measuring the reduction of Alamar Blue reagent by viable cells.
On day one of the experiment, M-NFS-60 cells were maintained in RPMI complete medium (Omega Scientific) plus 10% FBS supplemented with 20 ng/mL of M-CSF (R&D Systems). 96-well TC-treated, flat bottom plates were seeded at 10,000 cell/well at a volume of 100 μL per well. The cells were cultured overnight at 37° C. under 5% CO2.
On day two, compounds were added to the cells at 9 different concentrations, with half-log intervals alongside a control reference compound serving as a positive control. Final DMSO concentration was kept at 0.5% for a final volume of 200 μL. The compounds were allowed to incubate with the cells for 72 hours at 37° C. under 5% CO2.
On day five of the experiment, 40 μl of Alamar Blue reagent was added to each well and allowed to incubate for 3 hours. Alamar Blue fluorescence was read using SoftMax Pro software at 560 nm (excitation) and 590 nm (emission). IC50s were generated as an average of duplicates and represents the concentration of test compound that achieves 50% inhibition of cellular proliferation compared to control.

CSF1R (human) = target: T1, CSF1R (human) (Homo sapiens, UniProt P07333); experiment: Competition binding assay, CSF1R (human) Kd
T1 construct: made in house; host or cells: T7 phage display or HEK-293 cells (alternatives, not resolved per kinase)
T1 sequence (P07333 20-972): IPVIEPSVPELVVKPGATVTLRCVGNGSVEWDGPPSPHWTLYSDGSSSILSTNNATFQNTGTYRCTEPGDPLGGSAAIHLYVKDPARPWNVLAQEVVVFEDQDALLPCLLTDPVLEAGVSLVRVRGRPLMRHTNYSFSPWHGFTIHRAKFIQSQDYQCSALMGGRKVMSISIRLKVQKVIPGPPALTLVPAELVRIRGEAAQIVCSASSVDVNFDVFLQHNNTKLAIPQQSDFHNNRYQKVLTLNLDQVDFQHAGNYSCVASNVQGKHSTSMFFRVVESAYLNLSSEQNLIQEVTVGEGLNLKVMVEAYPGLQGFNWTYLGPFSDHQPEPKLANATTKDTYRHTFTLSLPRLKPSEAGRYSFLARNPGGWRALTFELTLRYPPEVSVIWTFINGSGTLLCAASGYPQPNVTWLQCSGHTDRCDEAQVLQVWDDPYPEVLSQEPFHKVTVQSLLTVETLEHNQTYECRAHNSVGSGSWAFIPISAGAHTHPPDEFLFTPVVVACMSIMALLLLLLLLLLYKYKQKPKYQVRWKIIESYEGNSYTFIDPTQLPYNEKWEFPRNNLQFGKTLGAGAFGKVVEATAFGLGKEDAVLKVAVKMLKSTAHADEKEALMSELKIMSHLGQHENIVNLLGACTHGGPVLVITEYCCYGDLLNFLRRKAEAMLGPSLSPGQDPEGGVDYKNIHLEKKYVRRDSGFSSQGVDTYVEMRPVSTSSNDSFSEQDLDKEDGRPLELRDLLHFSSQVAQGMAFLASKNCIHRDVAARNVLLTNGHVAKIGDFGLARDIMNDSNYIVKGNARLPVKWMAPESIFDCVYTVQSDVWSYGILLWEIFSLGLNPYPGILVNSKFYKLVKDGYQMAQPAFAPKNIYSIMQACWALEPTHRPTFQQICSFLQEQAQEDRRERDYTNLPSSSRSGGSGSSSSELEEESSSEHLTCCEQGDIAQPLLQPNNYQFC
Procedure: (§1) The liganded beads were blocked with excess biotin and washed with blocking buffer (SeaBlock (Pierce), 1% BSA, 0.05% Tween 20, 1 mM DTT) to remove unbound ligand and to reduce non-specific binding. […] Test compounds were prepared as 100× stocks in DMSO and diluted into the aqueous environment. Kds were determined using an eleven point threefold serial dilutions. DMSO or control compounds were was added to control assays lacking a test compound. […] The kinase concentration in the eluates was measured by quantitative PCR.

CSF1R (mouse) = target: T2, CSF1R (mouse) (Mus musculus, UniProt P09581); experiment: Competition binding assay, CSF1R (mouse) Kd
T2 construct: made in house; host or cells: T7 phage display or HEK-293 cells (alternatives, not resolved per kinase)
T2 sequence (P09581 20-977): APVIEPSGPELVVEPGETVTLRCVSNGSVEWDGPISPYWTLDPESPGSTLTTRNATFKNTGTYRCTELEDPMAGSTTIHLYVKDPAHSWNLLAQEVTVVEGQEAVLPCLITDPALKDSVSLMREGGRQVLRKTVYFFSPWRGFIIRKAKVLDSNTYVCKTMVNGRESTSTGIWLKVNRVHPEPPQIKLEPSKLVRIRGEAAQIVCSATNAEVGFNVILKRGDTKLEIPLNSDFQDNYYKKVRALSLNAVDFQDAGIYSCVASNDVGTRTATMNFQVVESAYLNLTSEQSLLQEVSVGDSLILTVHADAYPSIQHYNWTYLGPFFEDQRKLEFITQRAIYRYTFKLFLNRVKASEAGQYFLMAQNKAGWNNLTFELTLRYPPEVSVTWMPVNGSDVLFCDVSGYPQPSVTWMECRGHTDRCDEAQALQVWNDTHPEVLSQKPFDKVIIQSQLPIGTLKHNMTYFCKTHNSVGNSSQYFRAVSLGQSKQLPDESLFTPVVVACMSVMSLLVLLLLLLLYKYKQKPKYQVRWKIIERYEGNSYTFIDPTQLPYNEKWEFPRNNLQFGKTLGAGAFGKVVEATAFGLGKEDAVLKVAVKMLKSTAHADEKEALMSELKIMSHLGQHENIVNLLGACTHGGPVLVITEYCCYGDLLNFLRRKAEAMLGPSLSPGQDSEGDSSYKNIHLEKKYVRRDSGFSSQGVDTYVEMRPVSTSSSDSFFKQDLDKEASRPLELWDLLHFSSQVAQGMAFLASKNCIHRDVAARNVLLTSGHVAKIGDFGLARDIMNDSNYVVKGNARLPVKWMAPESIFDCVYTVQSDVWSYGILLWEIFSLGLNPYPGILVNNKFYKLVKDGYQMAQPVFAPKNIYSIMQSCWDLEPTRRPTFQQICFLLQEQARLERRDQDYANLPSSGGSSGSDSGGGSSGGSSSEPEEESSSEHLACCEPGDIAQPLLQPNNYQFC
Procedure: as §1

Structure (SMILES) | Kinase Specificity (S10) [1] | Kd (CSF1R (human)) [nM] | Kd (CSF1R (mouse)) [nM] | IC50 (M-NFS-60 cells) [nM] | CSF1R Cell Proliferation (M-NFS-60) IC50 (nM) (M-NFS-60 cells)
CN1CCC(Oc2ccnc(C(=O)Nc3ccc(NC(=O)Nc4cc(C(C)(C)C)on4)cc3)c2)CC1 | B (0.03 < B ≦ 0.05) | 3 to 10 | 3 to 10 | 250 to 1000 | –
CN1CCC(c2ccc(C(=O)Nc3ccc(NC(=O)Nc4cc(C(C)(C)C)on4)cc3)nc2)CC1 | B (0.03 < B ≦ 0.05) | 3 to 10 | 3 to 10 | ≤ 100 | –
CCN(CC)Cc1ccnc(C(=O)Nc2ccc(NC(=O)Nc3cc(C(C)(C)C)on3)cc2)c1 | A (A ≦ 0.03) | 3 to 10 | 3 to 10 | 250 to 1000 | –
CC(C)(C)c1cc(NC(=O)Nc2ccc(NC(=O)c3cc(OCCN4CCOCC4)ccn3)cc2)no1 | A (A ≦ 0.03) | 3 to 10 | < 3 | – | B/C
CN1CCN(c2ccc(C(=O)Nc3ccc(NC(=O)Nc4cc(C(C)(C)C)on4)cc3)nc2)CC1 | C (C > 0.05) | < 3 | < 3 | ≤ 100 | –
CCN1CCC(Oc2ccc(C(=O)Nc3ccc(NC(=O)Nc4cc(C(C)(CF)CF)on4)cc3)nc2)CC1 | B (0.03 < B ≦ 0.05) | < 3 | < 3 | ≤ 100 | –
CCN1CCC(Oc2ccc(C(=O)N[C@H]3CC[C@H](NC(=O)Nc4cc(C(C)(C)C)on4)CC3)nc2)CC1 | A (A ≦ 0.03) | 3 to 10 | 3 to 10 | 250 to 1000 | –
CC(C)N1CCC(Oc2ccc(C(=O)Nc3ccc(NC(=O)Nc4cc(C(C)(CF)CF)on4)cc3)nc2)CC1 | B (0.03 < B ≦ 0.05) | < 3 | < 3 | ≤ 100 | –
CC(C)(C)c1cc(NC(=O)Nc2ccc(NC(=O)c3cccc(CN)n3)cc2)no1.Cl | A (A ≦ 0.03) | > 10 | > 10 | 250 to 1000 | –
CCN(CC)Cc1cccc(C(=O)Nc2ccc(NC(=O)Nc3cc(C(C)(C)C)on3)cc2)n1 | A (A ≦ 0.03) | > 10 | > 10 | > 1000 | –
CN1CCC(Oc2ccc(C(=O)Nc3ccc(NC(=O)Nc4cc(C(C)(CF)CF)on4)cc3)nc2)CC1 | B (0.03 < B ≦ 0.05) | < 3 | < 3 | ≤ 100 | –
CC(C)(C)OC(=O)N1CCC(Oc2ccc(C(=O)N[C@H]3CC[C@H](NC(=O)Nc4cc(C(C)(C)C)on4)CC3)nc2)CC1 | A (A ≦ 0.03) | > 10 | 3 to 10 | 250 to 1000 | –
CC(C)(C)c1cc(NC(=O)Nc2ccc(NC(=O)c3cccc(CN4CCOCC4)n3)cc2)no1 | B (0.03 < B ≦ 0.05) | > 10 | > 10 | > 1000 | –
CC(C)(C)c1cc(NC(=O)Nc2ccc(NC(=O)c3cccc(OC4CCNCC4)n3)cc2)no1 | B (0.03 < B ≦ 0.05) | > 10 | > 10 | > 1000 | –
CC(C)(C)c1cc(NC(=O)N[C@H]2CC[C@H](NC(=O)c3ccc(OC4CCNCC4)cn3)CC2)no1 | A (A ≦ 0.03) | 3 to 10 | 3 to 10 | > 1000 | –

More lines, main results first:

Kinase Specificity (S10) [1] | Kd (CSF1R (human)) [nM] | Kd (CSF1R (mouse)) [nM] | Structure (SMILES) | IC50 (M-NFS-60 cells) [nM] | CSF1R Cell Proliferation (M-NFS-60) IC50 (nM) (M-NFS-60 cells)
A (A ≦ 0.03) | < 3 | < 3 | CC(CF)(CF)c1cc(NC(=O)Nc2ccc(NC(=O)c3ccc(OC4CCN(CC(F)(F)F)CC4)cn3)cc2)no1 | 100 to 250 | –
A (A ≦ 0.03) | 3 to 10 | 3 to 10 | CC(C)(C)c1cc(NC(=O)Nc2ccc(NC(=O)c3ccc(CN4CCOCC4)cn3)cc2)no1 | 100 to 250 | –
A (A ≦ 0.03) | < 3 | < 3 | CC(C)(C)c1cc(NC(=O)Nc2ccc(NC(=O)c3ccc(CC4CCNCC4)cn3)cc2)no1 | 100 to 250 | –
B (0.03 < B ≦ 0.05) | 3 to 10 | 3 to 10 | CN1CCN(c2ccnc(C(=O)Nc3ccc(NC(=O)Nc4cc(C(C)(C)C)on4)cc3)c2)CC1 | 100 to 250 | –
A (A ≦ 0.03) | > 10 | > 10 | CC(C)(C)c1cc(NC(=O)Nc2ccc(NC(=O)c3cccc(OCCN4CCOCC4)n3)cc2)no1 | > 1000 | –
B (0.03 < B ≦ 0.05) | 3 to 10 | 3 to 10 | CN1CCN(c2cccc(C(=O)Nc3ccc(NC(=O)Nc4cc(C(C)(C)C)on4)cc3)n2)CC1 | > 1000 | –
